Data on 14 molecules can be found in patent US12310975B2, “Modulators of BCL6 proteolysis and associated methods of use” (Arvinas Operations, Inc., priority 2019, dated 2025).

Broadly, the IC50 is the concentration that gives 50% inhibition. Broadly, the Dmax is the largest share of the target that was removed. Higher therefore signals a fuller loss of target.

SMILES strings stand for the structures. Some results are limits rather than exact numbers.

Assay [1] addresses T1, BCL6 (Homo sapiens (Human), UniProt P41182). The assay is described as follows: BCL6 TR-FRET assay (BCL6-Avitag-Biotin / BCoR-Cy5 peptide). It is filed as binding. To be noted: class symbols A-D; read-out: IC50 (nM)***. Here is the method:
Protein Synthesis. BCL6 protein was expressed by transforming Invitrogen One Shot cells with GS63525 pET24a-His-SUMO-TEV-BCLm-Avitag plasmid following manufacturer's instructions. In addition, biotin at a final concentration of 50 μM, and IPTG at a final concentration of 1 mM was added to the culture and incubated at room temperature shaking overnight.
Assay buffer A: 50 mM HEPES pH 7.5, 125 mM NaCl, 0.01% TritonX.
Assay buffer B (made fresh): buffer A+1 mM Glutathione (or 0.5 mM DTT).
Assay buffer C (made fresh): buffer B+0.03% BSA.
Black Proxy plates, 96 well.
15 μl final reaction volumes (BCoR-Cy5 100 nM, SA-Eu 2 nM, BCL6-avitag 2 nM).
[…] BCL6-Avitag-Biotin stock: made fresh by adding 2 μl of BCL6-Avitag-Biotin to 31.5 ml Buffer C.
1 mM BCoR-Cy5 peptide (LifeTein) stock in Dimethylformamide (DMF).
300 nM BCoR-Cy5 working stock: made fresh by adding 4.5 μl of the 1 mM BCoR-Cy5 peptide stock to 15 ml Buffer B.
10 μM Eu-Streptavidin (Lance Eu-W1024 Streptavidin, PerkinElmer) stock solution.
6 nM Eu-Streptavidin working stock: made fresh by adding 9 μl Eu-Streptavidin stock solution to 15 ml Buffer A.
Compounds were diluted to 10 mM. Twenty microliters of DMSO was aliquoted to each well of the microtiter plates. From the 10 mM compound stock, 8.7 ul was aliquoted to the 20 ul DMSO and 3-fold serial dilutions (12 pt 3-0.01 uM tritration plate, 96 well, 100% DMSO) performed. Five ul from the titration plate wells was aliquoted to 45 ul Buff C (Intermediate dilution plates, 10% DMSO).
Spot 1.5 μl compound titrations to 384-well plates in duplicate, and spot 3.5 μl [8.5 nM] BCL6-bio protein to each well. The plate was mix briefly, centrifuged, and incubated for 30 minutes at room temperature.
Mix 14 mls of BCoR-Cy5 [300 nM] and 14 mls [6 nM] Eu-Streptavidin. Spot 10 μl BCoR-Cy5/SA-Eu (1:1) mix to each well. The plates were incubated for 2 hours and then read on an Envision plate reader.
On the technique in general: Time-resolved FRET reads energy transfer from a long-lived donor to a nearby acceptor.

For assay [2], the target named is T1, BCL6. The assay is described as follows: Immunofluorescence high content imaging of BCL6 degradation in T47D cells. The assay is classed as cell-based. The settings on record: for Dmax: T47D, maximum, class symbols A-C; for DC50: class symbols A-D, read-out: EC50 (nM)*. The essentials: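 Following a 3-day incubation with serially diluted bifunctional compounds (final top 0.1 or 1 μM), T47D cells were PFA-fixed and immunostained for BCL6. Nuclear BCL6 signal was captured on a high-content imager.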

As for `CNC(=O)COc1cc2cc(Nc3nc(N4CCC(OCCN5CCN(Cc6ccc(C#Cc7ccc8c(c7)CN(C7CCC(=O)NC7=O)C8=O)cc6)CC5)CC4)ncc3Cl)ccc2n(C)c1=O` (stereo not drawn) [compound 119, 2-((6-((5-chloro-2-(4-(2-(4-(4-((2-(2,6-dioxopiperidin-3-yl)-1-oxoisoindolin-5-yl)ethynyl)benzyl)piperazin-1-yl)ethoxy)piperidin-1-yl)pyrimidin-4-yl)amino)-1-methyl-2-oxo-1,2-dihydroquinolin-3-yl)oxy)-N-methylacetamide], on BCL6 [1], the IC50 was < 10 nM. Further, on BCL6 [2], the maximal degradation (Dmax) was < 50% and the DC50 is 10 to 50 nM.
Turning to `CNC(=O)COc1cc2cc(Nc3nc(N4CCCC(COc5ccc(C6CCN(CCC(O)c7ccc8c(c7)CN(C7CCC(=O)NC7=O)C8=O)CC6)cc5)C4)ncc3Cl)ccc2n(C)c1=O` (stereo not drawn) [compound 127, 2-((6-((5-chloro-2-(3-((4-(1-(3-(2-(2,6-dioxopiperidin-3-yl)-1-oxoisoindolin-5-yl)-3-hydroxypropyl)piperidin-4-yl)phenoxy)methyl)piperidin-1-yl)pyrimidin-4-yl)amino)-1-methyl-2-oxo-1,2-dihydroquinolin-3-yl)oxy)-N-methylacetamide], the IC50 on BCL6 [1] was < 10 nM. For the same molecule, at BCL6 [2], the Dmax is < 50% and the DC50 was 10 to 50 nM.
Turning to `CC(=O)COc1cc2cc(Nc3nc(N4CCC(OCCN5CCN(c6ccc7c(c6)CN(C6CCC(=O)NC6=O)C7=O)CC5)CC4)ncc3Cl)ccc2n(C)c1=O` (stereo not drawn) [compound 128, 3-(5-(4-(2-((1-(5-chloro-4-((1-methyl-2-oxo-3-(2-oxopropoxy)-1,2-dihydroquinolin-6-yl)amino)pyrimidin-2-yl)piperidin-4-yl)oxy)ethyl)piperazin-1-yl)-1-oxoisoindolin-2-yl)piperidine-2,6-dione], on BCL6 [1], the IC50 is < 10 nM. Further, on BCL6 [2], the Dmax is < 50% and the DC50 was < 10 nM.
In the case of `CC(=O)COc1cc2cc(Nc3nc(N4CCN(CCCN5CCN(c6ccc7c(c6)CN(C6CCC(=O)NC6=O)C7=O)CC5)CC4)ncc3Cl)ccc2n(C)c1=O` (stereo not drawn) [compound 137, 3-(5-(4-(3-(4-(5-chloro-4-((1-methyl-2-oxo-3-(2-oxopropoxy)-1,2-dihydroquinolin-6-yl)amino)pyrimidin-2-yl)piperazin-1-yl)propyl)piperazin-1-yl)-1-oxoisoindolin-2-yl)piperidine-2,6-dione], the half-maximal inhibitory concentration (IC50) at BCL6 [1] was < 10 nM. Further, on BCL6 [2], the Dmax is < 50% and the DC50 lay in the range of 10 to 50 nM.
Turning to `CNC(=O)COc1cc2cc(Nc3nc(N4CCC(N(C)C5CCN(CC6CCN(c7ccc(C#Cc8ccc9c(c8)CN(C8CCC(=O)NC8=O)C9=O)cc7)CC6)CC5)CC4)ncc3Cl)ccc2n(C)c1=O` (stereo not drawn) [compound 138, 2-((6-((5-chloro-2-(4-((1-((1-(4-((2-(2,6-dioxopiperidin-3-yl)-1-oxoisoindolin-5-yl)ethynyl)phenyl)piperidin-4-yl)methyl)piperidin-4-yl) (methyl)amino)piperidin-1-yl)pyrimidin-4-yl)amino)-1-methyl-2-oxo-1,2-dihydroquinolin-3-yl)oxy)-N-methylacetamide], the IC50 on BCL6 [1] was < 10 nM. Further, on BCL6 [2], the greatest degradation seen (Dmax) is < 50% and the DC50 lay within 10 to 50 nM.
On to `CC(=O)COc1cc2cc(Nc3nc(N4CCN(CC5CCN(c6ccc7c(c6)C(=O)N(C6CCC(=O)NC6=O)C7=O)CC5)CC4)ncc3Cl)ccc2n(C)c1=O` (stereo not drawn) [compound 148, 5-(4-((4-(5-chloro-4-((1-methyl-2-oxo-3-(2-oxopropoxy)-1,2-dihydroquinolin-6-yl)amino)pyrimidin-2-yl)piperazin-1-yl)methyl)piperidin-1-yl)-2-(2,6-dioxopiperidin-3-yl)isoindoline-1,3-dione], for which, on BCL6 [1], the IC50 was < 10 nM. Also, on BCL6 [2], the maximal degradation (Dmax) was in the range of 50 to 70% and the DC50 was 10 to 50 nM.
Consider `Cn1c(=O)n(CCC(C)(C)O)c2cc(Nc3nc(N4CCC(CN5CCN(c6ccc7c(c6)C(=O)N(C6CCC(=O)NC6=O)C7=O)CC5)CC4)ncc3Cl)ccc21` (stereo not drawn) [compound 149, 5-(4-((1-(5-chloro-4-((3-(3-hydroxy-3-methylbutyl)-1-methyl-2-oxo-2,3-dihydro-1H-benzo[d]imidazol-5-yl)amino)pyrimidin-2-yl)piperidin-4-yl)methyl)piperazin-1-yl)-2-(2,6-dioxopiperidin-3-yl)isoindoline-1,3-dione], for which the IC50 on BCL6 [1] is ≥ 100 nM. For the same molecule, on BCL6 [2], the DC50 was > 100 nM.
`Cn1c(=O)ccc2cc(Nc3nc(N4CCC(CN5CCN(c6ccc7c(c6)C(=O)N(C6CCC(=O)NC6=O)C7=O)CC5)CC4)ncc3Cl)ccc21` (stereo not drawn) [compound 150, 5-(4-((1-(5-chloro-4-((1-methyl-2-oxo-1,2-dihydroquinolin-6-yl)amino)pyrimidin-2-yl)piperidin-4-yl)methyl)piperazin-1-yl)-2-(2,6-dioxopiperidin-3-yl)isoindoline-1,3-dione]: at BCL6 [1], the 50% inhibitory concentration (IC50) was ≥ 100 nM. Moreover, the DC50 at BCL6 [2] was > 100 nM.
For the molecule `CNC(=O)COc1cc2cc(Nc3nc(N4CCC(CN5CCN(c6ccc7c(c6)CN(C6CCC(=O)NC6=O)C7=O)CC5)CC4)ncc3Cl)ccc2n(C)c1=O` (stereo not drawn) [compound 151, 2-((6-((5-chloro-2-(4-((4-(2-(2,6-dioxopiperidin-3-yl)-1-oxoisoindolin-5-yl)piperazin-1-yl)methyl)piperidin-1-yl)pyrimidin-4-yl)amino)-1-methyl-2-oxo-1,2-dihydroquinolin-3-yl)oxy)-N-methylacetamide], the 50% inhibitory concentration (IC50) on BCL6 [1] is < 10 nM. Besides, on BCL6 [2], the maximal degradation (Dmax) lay in the range of 50 to 70% and the DC50 is 10 to 50 nM.
Take `CC(=O)COc1cc2cc(Nc3nc(N4CCC(CN5CCN(c6ccc7c(c6)C(=O)N(C6CCC(=O)NC6=O)C7=O)CC5)CC4)ncc3Cl)ccc2n(C)c1=O` (stereo not drawn) [compound 152, 5-(4-((1-(5-chloro-4-((1-methyl-2-oxo-3-(2-oxopropoxy)-1,2-dihydroquinolin-6-yl)amino)pyrimidin-2-yl)piperidin-4-yl)methyl)piperazin-1-yl)-2-(2,6-dioxopiperidin-3-yl)isoindoline-1,3-dione]: on BCL6 [1], the half-inhibitory concentration (IC50) fell in the range of 50 to 100 nM. Further, on BCL6 [2], the greatest degradation seen (Dmax) lay in the range of 50 to 70% and the DC50 was 10 to 50 nM.
In the case of `CC(=O)COc1cc2cc(Nc3nc(N4CCC(C(=O)N5CCN(c6ccc7c(c6)C(=O)N(C6CCC(=O)NC6=O)C7=O)CC5)CC4)ncc3Cl)ccc2n(C)c1=O` (stereo not drawn) [compound 153, 5-(4-(1-(5-chloro-4-((1-methyl-2-oxo-3-(2-oxopropoxy)-1,2-dihydroquinolin-6-yl)amino)pyrimidin-2-yl)piperidine-4-carbonyl)piperazin-1-yl)-2-(2,6-dioxopiperidin-3-yl)isoindoline-1,3-dione], the IC50 on BCL6 [1] was 50 to 100 nM. Moreover, at BCL6 [2], the greatest degradation seen (Dmax) is ≥ 70% and the DC50 was < 10 nM.
For the molecule `CC(=O)COc1cc2cc(Nc3nc(N4CCC(CN5CCC(Oc6ccc7c(c6)C(=O)N(C6CCC(=O)NC6=O)C7=O)CC5)C4)ncc3Cl)ccc2n(C)c1=O` (stereo not drawn) [compound 154, 5-((1-((1-(5-chloro-4-((1-methyl-2-oxo-3-(2-oxopropoxy)-1,2-dihydroquinolin-6-yl)amino)pyrimidin-2-yl)pyrrolidin-3-yl)methyl)piperidin-4-yl)oxy)-2-(2,6-dioxopiperidin-3-yl)isoindoline-1,3-dione], the half-maximal inhibitory concentration (IC50) at BCL6 [1] is 50 to 100 nM. Besides, on BCL6 [2], the Dmax was < 50% and the DC50 was 10 to 50 nM.
With `CNC(=O)CCc1cc2cc(Nc3nc(N4CCC(CN5CCN(c6ccc7c(c6)C(=O)N(C6CCC(=O)NC6=O)C7=O)CC5)CC4)ncc3Cl)ccc2n(C)c1=O` (stereo not drawn) [compound 155, 3-(6-((5-chloro-2-(4-((4-(2-(2,6-dioxopiperidin-3-yl)-1,3-dioxoisoindolin-5-yl)piperazin-1-yl)methyl)piperidin-1-yl)pyrimidin-4-yl)amino)-1-methyl-2-oxo-1,2-dihydroquinolin-3-yl)-N-methylpropanamide], the half-maximal inhibitory concentration (IC50) on BCL6 [1] was ≥ 100 nM. Also, on BCL6 [2], the DC50 was > 100 nM.
Turning to `Cn1c(=O)cc(NC(C)(C)c2ncccn2)c2cc(Nc3nc(N4CCC(CN5CCN(c6ccc7c(c6)C(=O)N(C6CCC(=O)NC6=O)C7=O)CC5)CC4)ncc3Cl)ccc21` (stereo not drawn) [compound 156, 5-(4-((1-(5-chloro-4-((1-methyl-2-oxo-4-((2-(pyrimidin-2-yl)propan-2-yl)amino)-1,2-dihydroquinolin-6-yl)amino)pyrimidin-2-yl)piperidin-4-yl)methyl)piperazin-1-yl)-2-(2,6-dioxopiperidin-3-yl)isoindoline-1,3-dione], the half-maximal inhibitory concentration (IC50) on BCL6 [1] is ≥ 100 nM. At BCL6 [2], the maximal degradation (Dmax) was < 50% and the DC50 is > 100 nM.
